In publication PMC6934184, “Selective DNA-PKcs inhibition extends the therapeutic index of localized radiotherapy and chemotherapy” (The Journal of Clinical Investigation, 2019):

Target: T1, CSNK1E (CK1 epsilon) (Homo sapiens, UniProt P49674)
T1 construct: purchased Thermo Fisher Scientific (Life Technologies) SelectScreen
Test: SelectScreen Z'LYTE
Type: biochemical
How it was run: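 NU5455 was profiled across the SelectScreen Broad panel of kinase activity and binding assays. Z'LYTE reactions such as CSF1R ran at apparent Km ATP, while the Adapta CAMK1 assay used ATP listed as 10. Values are given as percent.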

T1 sequence (P49674 whole entry): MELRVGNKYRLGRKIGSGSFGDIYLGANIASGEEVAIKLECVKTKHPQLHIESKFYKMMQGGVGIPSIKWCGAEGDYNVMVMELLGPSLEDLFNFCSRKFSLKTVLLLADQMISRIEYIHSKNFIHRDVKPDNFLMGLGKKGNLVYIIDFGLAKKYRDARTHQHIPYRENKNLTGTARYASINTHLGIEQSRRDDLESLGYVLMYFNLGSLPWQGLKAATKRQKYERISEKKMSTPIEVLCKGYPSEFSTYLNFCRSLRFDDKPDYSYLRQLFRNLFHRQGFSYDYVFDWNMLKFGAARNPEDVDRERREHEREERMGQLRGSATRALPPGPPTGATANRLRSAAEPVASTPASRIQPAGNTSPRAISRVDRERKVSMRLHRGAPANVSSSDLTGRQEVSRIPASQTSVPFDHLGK

CN(C(=O)CN1CCOCC1)c1ccc2sc3c(-c4cccc5c(=O)cc(N6CC7CCC(C6)O7)oc45)cccc3c2c1 [NU5455] was tested, and the inhibition at 1 µM was -10.9%.
